According to paper PMC3587680 (European journal of medicinal chemistry, 2012):

Legend:
[1] = Thermodynamic solubility in PBS; assay type: physicochemical; conditions: PBS pH 7.4, 25 °C
[2] = biological target: T1, recombinant human thymidine kinase 1 (hTK1) (Homo sapiens, UniProt P04183); conditions: for kcat ± SD: apparent, varying substrate concentrations, 100 μM ATP, three replicates; for rkcat/Km (kcat/Km relative to that of dThd): current recombinant hTK1 preparation (specific activity 441 nmol/min/mg)
T1 sequence (P04183 1-234): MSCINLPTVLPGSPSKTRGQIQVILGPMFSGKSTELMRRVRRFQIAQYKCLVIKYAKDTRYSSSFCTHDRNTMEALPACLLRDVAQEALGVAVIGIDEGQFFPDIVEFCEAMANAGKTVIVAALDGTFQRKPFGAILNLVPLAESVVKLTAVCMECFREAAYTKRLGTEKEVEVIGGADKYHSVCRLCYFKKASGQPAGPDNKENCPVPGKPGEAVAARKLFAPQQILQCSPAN

[3] = biological target: T1, recombinant human thymidine kinase 1 (hTK1); conditions: PTA conditions
[4] = biological target: T1, recombinant human thymidine kinase 1 (hTK1); conditions: different hTK1 enzyme preparation, previous study; cited from earlier work
[5] = tested on: L929 TK (+) cells; conditions: cited from earlier work
[6] = tested on: intracranial RG2 glioma; conditions: rats bearing intracranial RG2 glioma, cited from earlier work

Substance	Solubility in PBS pH 7.4 [1]	kcat ± SD [2] [S^-1]	rkcat/Km (kcat/Km relative to that of dThd) [2] [%]	Stability under phosphoryl transfer assay conditions (phosphorylated side products, dTMP) [3]	rkcat/Km [4] [%]	In vitro uptake in L929 TK (+) cells relative to L929 TK (−) cells [5]	Boron concentration in tumor relative to normal brain [6] [fold]	Boron concentration in normal brain ([6]; normal brain) [μg B/g tumor]	Boron concentration in tumor ([6]; tumor) [μg B/g tumor]
3-[1(2)-closo-1,7-Carboranylbutyltetrazol-5-yl]thymidine [11d1/2]	13.3 - 13.8 |g/mL ^*	0.32 ± 0.02	19.7						
3-[1(2)-closo-1,7-Carboranylbutyltetrazol-5-ylmethyl]thymidine [9d1/2]	33.9 ± 1.4 |g/mL	0.47 ± 0.04	8.9						
3-[1(2)-closo-1,7-Carboranylethyltetrazol-5-yl]thymidine [11b1/2]	42.6 ± 1.0 |g/mL	0.35 ± 0.03							
3-[1(2)-closo-1,7-Carboranylethyltetrazol-5-ylmethyl]thymidine [9b1/2]	133.1 ± 5.2 |g/mL	0.44 ± 0.03	14.9						
3-[1(2)-closo-1,7-Carboranylpropyltetrazol-5-yl]thymidine [11c1/2]	25.4 - 26.3 |g/mL^2	0.37 ± 0.06	5.0						
3-[1(2)-closo-1,7-Carboranylpropyltetrazol-5-ylmethyl]thymidine [9c1/2]	84.2 ± 4.1 |g/mL	0.39 ± 0.04	7.6						
3-[2-Imino-2-{2-(closo-1,7-carboranyl)ethylamino}ethyl]thymidine [Compound 3e]	>19.5 mg/mL			did not appear to produce significant amounts of dTMP as a side product					
3-[2-Imino-2-{3-(closo-1,7-carboranyl)propylamino}ethyl]thymidine [Compound 3f]	>15 mg/mL			did not appear to produce significant amounts of dTMP as a side product					
3-[5-{2-(2,3-dihydroxyprop-1-yl)-o-carboran-1-yl}pentan-1-yl]thymidine [Compound N5-2OH]	7-10 |g/mL	0.42 ± 0.03	10.8		35.8	5-10 fold	10	2.6	27.6
